Results published in patent US10703752B2, “Integrin antagonists” (OXURION NV, priority 2018, dated 2020).
Where a name gives a salt, the structure may show the parent alone.

Assays:
platelet integrin αIIbβ3 = platelet integrin αIIbβ3 (Homo sapiens, UniProt P05106+P08514); experiment: Competition ELISA, integrin antagonism (fibronectin ligand); conditions: fibronectin binding to coated receptor
Description: (§1) Suitable methods for determining EC50 values are known to the skilled person. One particular method to determine the value for a particular compound is a competition ELISA assay wherein the integrin receptor under investigation (in particular human αvβ3 integrin receptor) is coated to a multi-well plate using a 4 μg/mL solution and the wells are blocked with 5% bovine serum albumin. The fibronectin concentration to be used in the assay is determined experimentally in a separate experiment by testing the binding of various fibronectin concentrations to the coated integrin under investigation, the concentration of fibronectin for the assay being the one that gives 80% of maximal binding. The determined concentration of human fibronectin is then added to the coated and blocked wells in the presence of increasing concentrations of the compound. After 2 h incubation at 37° C., the wells are washed and the bound fibronectin is detected with the help of a specific reagent, such as a detectable anti-fibronectin antibody. Quantitative analysis of the data is then performed to determine EC50 values, i.e. the concentration of the compound that reduces fibronectin binding to the coated receptor by 50%.
(§2) The principle of the competition ELISA assays used here was as follows: (1) the integrin receptor under investigation was coated to 96-well plates and the wells were blocked, (2) an integrin ligand (fibronectin) was then added to the relevant wells in the presence of increasing concentrations of a given integrin antagonist, (3) after a defined amount of time, the wells were washed and the bound ligand was detected with the help of a specific reagent. Quantitative analysis of the data was then performed to determine EC50 values, i.e. the concentration of the integrin antagonist that reduces ligand binding to the coated receptor by 50%.

α5β1 integrin receptor = α5β1 integrin receptor (Homo sapiens, UniProt P05556+P08648); experiment: as above; conditions: fibronectin binding to coated receptor
Description: as §1, §2

αvβ3 integrin receptor = αvβ3 integrin receptor (Homo sapiens, UniProt P05106+P06756); experiment: as above; conditions: fibronectin binding to coated receptor, read-out: EC50 ανβ3
Description: as §1, §2

αvβ5 integrin receptor = αvβ5 integrin receptor (Homo sapiens, UniProt P06756+P18084); experiment: as above; conditions: fibronectin binding to coated receptor, read-out: EC50 ανβ5
Description: as §1, §2

[1] = test system: human umbilical vein endothelial cells (HUVECs); experiment: ORIS Cell Migration Assay; assay type: cell-based; conditions: HUVEC, fibronectin-coated plates, 24 h migration
Description: Endothelial cell wound healing is mediated by endothelial cell migration and proliferation, both critical components of the angiogenesis process, and is routinely used as a surrogate model for in vitro angiogenic potential. The ORIS™ Cell Migration Assay was used with human umbilical vein endothelial cells (HUVECs).
HUVEC cells (SCCE-001, Cat no 1000519, Merck Chemicals) were cultured in T175 flasks (Cat no 353112, falcon) in EndoGro Growth Medium (SCME-003, Merck Chemicals) and split when they reached 90-100% confluence.
For the assay, cells were used at passage 2 to 4 after thawing and at 80-90% confluency. At the beginning of the day, the fibronectin-coated Oris™ Cell Migration Assay Plates (Cat no # CMAFN.101, AMS Biotechnology) were removed from refrigeration and placed at RT for 1 h. The Oris Detection Masks were washed with ethanol and applied to the bottom of the 96-well plates, aligning the Al corner of the masks with the Al corner of the plates. Cells were harvested by trypsinization (Cat no 25300, Gibco), centrifuged at 250 g for 5 mm and suspended at 0.4·10^6 per mL in complete EndoGro growth medium. 100 μL of the cell suspension were added to the wells and the plates were incubated for 6 h at 37° C. and 5% C02 to allow cells to adhere.
At the end of the incubation, the stopper tool was washed with ethanol and used to remove the stoppers from all the wells except the reference wells. […]
Just prior to the end of the incubation, a 4 μg/mL calcein AM (Cat no 354217, Beckton Dickinson) solution was prepared in pre-warmed HBSS (Cat no 14025, Gibco). […] After incubation the fluorescence was read at 494 nm excitation and 517 nm emission wavelengths using the Flexstation and the SofiMax Pro 5.4.5 software (Molecular Devices). The fluorescence was read from the bottom of the plates with the lid on to keep them sterile. The masks were then removed and pictures were taken with the Axiovert fluorescence microscope (Zeiss) using reflected light, GFP and a 2.5× objective.

[2] = test system: RPE-choroid sclera explants; experiment: Murine choroidal explant assay (vessel sprouting); assay type: cell-based, C57BL/6J mice; conditions: for IC50: Mus musculus, murine choroid explants in fibrin gel, 3 to 4 days, read-out: IC50 vessel outgrowth
Source text: The assay is based on a murine microvascular angiogenesis explant model, which closely mimics in viva choroidal angiogenesis. The major advantage of this organotypical culture model is that cells are kept within their normal environment, thereby preserving cell-cell interactions, while maintaining a higher level of experimental control than in animal models. The choroidal explant model or briefly EMCA model allows for rapid evaluation of new anti-angiogenic therapeutics, with the additional benefit of excluding the potential lack of exposure often encountered when testing small molecules in animal eyes. RPE-choroid sclera explants (hereinafter referred to as choroid explants) are embedded in a three-dimensional fibrinogen/fibrin gel. Addition of serum-containing medium induces extensive endothelial cell sprout outgrowth into the matrix after 3 to 4 days in culture.
All experiments were performed using 4 to 5-weeks old male C57BL/6J mice (Charles River Laboratories France), housed under standard laboratory conditions according to a normal day/night rhythm with ad libitum access to food and water. All animal experiments were approved by the Institutional Ethical Committee of KU Leuven.
After initial optimization, a general protocol was set-up. Briefly, after euthanasia of the mice using pentobarbital (200 mg/kg, IP, Dolethal, Vetoquinol) followed by cervical dislocation, eyes were immediately enucleated with curved forceps and kept in ice-cold DPBS (cat no 14190-136, Gihco). Under a stereomicroscope, the eye was placed in a drop of ice-cold DPBS, and held in place with forceps on an ice-cold petri dish. The cornea and lens were removed via a circumferential incision at the limbus (cornea-sclera boundary) using Vannas spring scissors (Fine Science Tools). Next, redundant muscles were removed from the remaining eyeball and a cut was made from the edge of the posterior chamber towards the optic nerve head. […]

| Structure (SMILES) | EC50 (platelet integrin αIIbβ3) [nM] | EC50 (α5β1 integrin receptor) [nM] | EC50 (αvβ3 integrin receptor) [nM] | EC50 (αvβ5 integrin receptor) [nM] | IC50 [1] [nM] | IC50 [2] [nM] | endothelial sprout formation, in words ([2]; murine choroid explants) |
| --- | --- | --- | --- | --- | --- | --- | --- |
| COC(=O)CCOC(=O)N[C@@H](CNc1nc(C)nc(N2CCC(c3ccc4c(n3)NCCC4)CC2)c1C)C(=O)O [cpdA, (2S)-3-({2,5-dimethyl-6-[4-(5,6,7,8-tetrahydro-1,8-naphthyridin-2-yl)piperidin-1-yl]pyrimidin-4-yl}amino)-2-{[(3-methoxy-3-oxopropoxy)carbonyl]amino}propanoic acid trifluoro acetate, reference compound] | 1 to 10 | 1 to 10 | 1 to 10 | 1 to 10 |  |  |  |
| Cc1nc(NC[C@H](NC(=O)OC(C)C(=O)O)C(=O)O)c(C)c(N2CCC(c3ccc4c(n3)NCCC4)CC2)n1 (stereo partly drawn) [cpd3, (2S)-2-{[(1-carboxyethoxy)carbonyl]amino}-3-({2,5-dimethyl-6-[4-(5,6,7,8-tetrahydro-1,8-naphthyridin-2-yl)piperidin-1-yl]pyrimidin-4-yl}amino)propanoic acid, dihydrochloride] | > 25 | 1 to 10 | 1 to 10 | 1 to 10 | < 1000 | ~1000 | inhibition of vessel sprouting |
| Cc1nc(NC[C@H](NC(=O)OCC(=O)O)C(=O)O)c(C)c(N2CCC(c3ccc4c(n3)NCCC4)CC2)n1 [cpd2, (2S)-2-([(carboxymethoxy)carbonyl]amino)-3-({2,5-dimethyl-6-[4-(5,6,7,8-tetrahydro-1,8-naphthyridin-2-yl)piperidin-1-yl]pyrimidin-4-yl}amino)propanoic acid dihydrochloride] | > 25 | 1 to 10 | 1 to 10 | 1 to 10 | < 1000 |  |  |
| Cc1nc(NC[C@H](NC(=O)OCCC(=O)O)C(=O)O)c(C)c(N2CCC(c3ccc4c(n3)NCCC4)CC2)n1 [cpd1, (2S)-2-{[(2-carboxyethoxy)carbonyl]amino}-3-({2,5-dimethyl-6-[4-(5,6,7,8-tetrahydro-1,8-naphthyridin-2-yl)piperidin-1-yl]pyrimidin-4-yl}amino)propanoic acid] | > 25 | 1 to 10 | 1 to 10 | 1 to 10 |  |  |  |
| Cc1nc(NC[C@H](NC(=O)OCc2ccccc2)C(=O)O)c(C)c(N2CCC(c3ccc4c(n3)NCCC4)CC2)n1 [cpdB, reference compound] | 1 to 10 | 1 to 10 | 10 to 25 | 1 to 10 | < 1000 | ~1000 |  |
